In patent US20230085307A1, “PYRIDAZINONE COMPOUND AND HERBICIDE” (NISSAN CHEMICAL CORPORATION, priority 2019, published 2023):

Experiments:
[1] = system: late watergrass; experiment: Test Example 1: herbicidal activity, application before weed generation under submerged conditions (Table 16, symbol A); format: in vivo, late watergrass (Echinochloa oryzicola); settings: for Herbicidal effect on A: late watergrass (grade 0-5): 320 g/ha applied herbicide
How it was run: (§1)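 Submerged Wagner pots (alluvial soil, 4 cm water) sown with weed seeds and planted with 2.5-leaf rice seedlings; emulsifiable concentrate diluted in water applied to water surface on sowing day. Held in greenhouse at 25-30 °C; injury scored 0-5 by herbicidal rate after three weeks.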

[2] = system: oval-leafed pondweed; experiment: Test Example 2: herbicidal activity, application during weed generation under submerged conditions (Table 17, symbol C); format: in vivo, oval-leafed pondweed (Monochoria vaginalis); settings: for herbicidal effect rating, C: oval-leafed pondweed: AAH 320 g/ha, application during weed generation, submerged conditions
How it was run: (§2)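 Alluvial soil in Wagner pots was flooded to 4 cm depth and sown with the three weeds together; pots were kept in a greenhouse at 25° C. to 30° C. At the one to two leaf stage, an emulsion formulation diluted in water to a set rate went onto the water surface; scored three weeks later.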

[3] = system: rice flat sedge; experiment: Test Example 3: herbicidal effect by foliage application, Wagner pot (Table 18, symbol E); format: in vivo, rice flat sedge (Cyperus iria); settings: amount of applied herbicide 320 g/ha
How it was run: (§3)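 Plants were sown in alluvial soil held under 0.1–0.5 cm standing water and grown 14 days in a greenhouse at 25–30 °C. An emulsifiable formulation, water-diluted to the set dose, was then sprayed onto the foliage, and effects were scored three weeks later using previously defined criteria.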

[4] = system: barnyard grass; experiment: Test Example 3: herbicidal effect by foliage application, Wagner pot (Table 18, symbol H); format: in vivo, barnyard grass (Echinochloa crus-galli); settings: amount of applied herbicide 320 g/ha
How it was run: as §3

[5] = system: Japanese bulrush; experiment: Test Example 2: herbicidal activity, application during weed generation under submerged conditions (Table 17, symbol B); format: in vivo, Japanese bulrush (Schoenoplectus juncoides); settings: for herbicidal effect rating, B: Japanese bulrush: AAH 320 g/ha, application during weed generation, submerged conditions
How it was run: as §2

[6] = system: oval-leafed pondweed; experiment: Test Example 1: herbicidal activity, application before weed generation under submerged conditions (Table 16, symbol C); format: in vivo, oval-leafed pondweed (Monochoria vaginalis); settings: for Herbicidal effect on C: oval-leafed pondweed (grade 0-5): 320 g/ha applied herbicide
How it was run: as §1

[7] = system: late watergrass; experiment: Test Example 2: herbicidal activity, application during weed generation under submerged conditions (Table 17, symbol A); format: in vivo, late watergrass (Echinochloa oryzicola); settings: for herbicidal effect rating, A: late watergrass: AAH 320 g/ha, application during weed generation, submerged conditions
How it was run: as §2

[8] = system: Japanese bulrush; experiment: Test Example 1: herbicidal activity, application before weed generation under submerged conditions (Table 16, symbol B); format: in vivo, Japanese bulrush (Schoenoplectus juncoides); settings: for Herbicidal effect on B: Japanese bulrush (grade 0-5): 320 g/ha applied herbicide
How it was run: as §1

[9] = system: Chinese sprangletop; experiment: Test Example 3: herbicidal effect by foliage application, Wagner pot (Table 18, symbol D); format: in vivo, chinese sprangletop (Leptochloa chinensis); settings: amount of applied herbicide 320 g/ha
How it was run: as §3

[10] = amount of applied herbicide 320 g/ha
[11] = application during weed generation under submerged conditions, amount of applied herbicide 320 g/ha

| Structure (SMILES) | Herbicidal effect on A: late watergrass (grade 0-5) [1] | herbicidal effect rating, C: oval-leafed pondweed [2] | herbicidal effect on E: rice flat sedge [3] | herbicidal effect on H: barnyard grass [4] | herbicidal effect rating, B: Japanese bulrush [5] | Herbicidal effect on C: oval-leafed pondweed (grade 0-5) [6] | herbicidal effect rating, A: late watergrass [7] | Herbicidal effect on B: Japanese bulrush (grade 0-5) [8] | herbicidal effect on D: Chinese sprangletop [9] | Herbicidal effect, A: late watergrass [1, 10] | herbicidal effect grade, C: oval-leafed pondweed [2, 11] | Herbicidal effect on E (rice flat sedge), foliage application [3] | Herbicidal effect on H (barnyard grass), foliage application [4] | herbicidal effect grade, B: Japanese bulrush [5, 11] | Herbicidal effect, C: oval-leafed pondweed [6, 10] | herbicidal effect grade, A: late watergrass [7, 11] | Herbicidal effect, B: Japanese bulrush [8, 10] | Herbicidal effect on D (Chinese sprangletop), foliage application [9] |
| --- | --- | --- | --- | --- | --- | --- | --- | --- | --- | --- | --- | --- | --- | --- | --- | --- | --- | --- |
| CCCC(=O)Oc1c(C)nn(C)c(=O)c1-c1c(-c2ccc(C(F)(F)F)cc2Cl)sc2ccc(F)cc12 [2-357] | 4 (Herbicidal rate of 70% or more and less than 90%) | 0 (Herbicidal rate of 5% or less (almost no effect)) | 2 (Herbicidal rate of 20% or more and less than 40%) | 5 (Herbicidal rate of 90% or more (almost completely withered)) | 0 (Herbicidal rate of 5% or less (almost no effect)) | 0 (Herbicidal rate of 5% or less (almost no effect)) | 2 (Herbicidal rate of 20% or more and less than 40%) | 2 (Herbicidal rate of 20% or more and less than 40%) | 3 (Herbicidal rate of 40% or more and less than 70%) | – | – | – | – | – | – | – | – | – |
| COc1cc(OC)cc(-c2sc3ccc(F)cc3c2-c2c(O)c(C)nn(C)c2=O)c1 [2-360] | 3 (Herbicidal rate of 40% or more and less than 70%) | 0 (Herbicidal rate of 5% or less (almost no effect)) | 3 (Herbicidal rate of 40% or more and less than 70%) | 5 (Herbicidal rate of 90% or more (almost completely withered)) | 0 (Herbicidal rate of 5% or less (almost no effect)) | 0 (Herbicidal rate of 5% or less (almost no effect)) | 2 (Herbicidal rate of 20% or more and less than 40%) | 2 (Herbicidal rate of 20% or more and less than 40%) | 4 (Herbicidal rate of 70% or more and less than 90%) | – | – | – | – | – | – | – | – | – |
| CCCC(=O)Oc1c(C)nn(C)c(=O)c1-c1c(-c2ccc(OCCOC)cc2)oc2ccc(C)cc12 [9-064] | – | – | – | – | – | – | – | – | – | 5 (Herbicidal rate of 90% or more (almost completely withered)) | 4 (Herbicidal rate of 70% or more and less than 90%) | 5 (Herbicidal rate of 90% or more (almost completely withered)) | 5 (Herbicidal rate of 90% or more (almost completely withered)) | 3 (Herbicidal rate of 40% or more and less than 70%) | 5 (Herbicidal rate of 90% or more (almost completely withered)) | 4 (Herbicidal rate of 70% or more and less than 90%) | 5 (Herbicidal rate of 90% or more (almost completely withered)) | 1 (Herbicidal rate of 5% or more and less than 20%) |
